Experiments:
FLT3 = target: T1, FLT3 (Homo sapiens, UniProt P36888); assay: Reaction Biology NanoBRET target engagement assay, FLT3; format: cell-based; conditions: HEK-293 cells transfected with Kinase-NanoLuc fusion vector, live cells
T1 sequence (P36888 27-993): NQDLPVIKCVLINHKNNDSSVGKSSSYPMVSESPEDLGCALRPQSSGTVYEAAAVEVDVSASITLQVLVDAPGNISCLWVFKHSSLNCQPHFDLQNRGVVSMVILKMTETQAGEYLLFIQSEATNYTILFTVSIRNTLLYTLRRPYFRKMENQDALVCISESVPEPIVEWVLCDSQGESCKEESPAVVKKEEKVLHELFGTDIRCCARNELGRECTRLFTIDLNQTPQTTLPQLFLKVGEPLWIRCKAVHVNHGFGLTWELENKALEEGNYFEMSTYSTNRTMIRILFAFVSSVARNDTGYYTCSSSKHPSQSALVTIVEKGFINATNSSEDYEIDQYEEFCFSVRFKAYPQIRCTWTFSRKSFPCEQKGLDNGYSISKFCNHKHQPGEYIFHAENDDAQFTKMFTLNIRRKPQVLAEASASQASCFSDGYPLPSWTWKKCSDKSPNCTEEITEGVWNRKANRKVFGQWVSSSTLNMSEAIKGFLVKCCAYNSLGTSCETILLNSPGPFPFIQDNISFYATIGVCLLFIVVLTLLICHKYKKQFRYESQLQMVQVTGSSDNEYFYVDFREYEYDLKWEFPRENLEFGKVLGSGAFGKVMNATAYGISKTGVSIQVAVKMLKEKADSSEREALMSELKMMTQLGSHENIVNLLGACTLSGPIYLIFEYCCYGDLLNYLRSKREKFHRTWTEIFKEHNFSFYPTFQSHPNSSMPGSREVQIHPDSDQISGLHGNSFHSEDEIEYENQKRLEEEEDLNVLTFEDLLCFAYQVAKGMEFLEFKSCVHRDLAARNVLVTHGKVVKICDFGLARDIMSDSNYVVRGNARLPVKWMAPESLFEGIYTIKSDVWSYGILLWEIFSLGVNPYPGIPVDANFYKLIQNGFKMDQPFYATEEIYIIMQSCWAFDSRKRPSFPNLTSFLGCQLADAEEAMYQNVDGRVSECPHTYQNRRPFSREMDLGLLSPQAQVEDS
Excerpt: (§1) The NanoBRET assay measures kinase engagement in real time in the context of the intact cell. Unlike the previously described biochemical kinase assay methodologies in Examples 47 and 48, the NanoBRET assay measures the binding and activity characteristics under equilibrium conditions using full-length kinases in the presence of cellular concentrations of ATP in live, uncompromised cells. […] The assay uses a Kinase-NanoLuc® fusion vector expressing a kinase protein to which a luciferase tag has been added, a cell-permeant fluorescent NanoBRET™ tracer, a NanoLuc® substrate, and an extracellular NanoLuc® inhibitor. Upon expression of the luciferase-tagged kinase, cells will produce a strong BRET signal only in the presence of the NanoBRET™ tracer. The extracellular NanoLuc® inhibitor ensures that the BRET signal observed emanates only from live cells. Because the BRET signal has tight distance constraints, addition of the test compound will decrease the BRET signal if the compound competes with the NanoBRET™ tracer for binding to the kinase domain. Under the appropriate tracer conditions established by the manufacturer, quantitative intracellular affinity and relative potency can then be determined using Mass Action model equations.
(§2) HEK-293 cells were purchased from ATCC. FuGENEHD Transfection Reagent, Kinase-NanoLucfusion plasmids, Transfection Carrier DNA, NanoBRETTracers and dilution buffer, NanoBRETNano-Glo Substrate, Extracellular NanoLucInhibitor were obtained from Promega.
(§3) Assays were conducted following Promega assay protocol with some modifications. HEK-293 Cells were transiently transfected with Kinase-NanoLucFusion Vector DNA by FuGENEHD Transfection Reagent. Testing compounds were delivered into 384 well assay plate by Echo 550 (LabcyteInc, Sunnyvale, CA). Transfected cells were harvested and mixed with NanoBRETTracer Reagent and dispensed into 384 well plates and incubated at 37° C. in 5% CO2 cell culture incubator for 1 hour. The NanoBRETNano-Glo Substrate plus Extracellular NanoLucInhibitor Solution were added into the wells of the assay plate and incubated for 2-3 minutes at room temperature. The donor emission wavelength (460 nm) and acceptor emission wavelength (600 nm) were measured in the EnVisionplate reader. The BRET Ratios were calculated. BRET Ratio=[(Acceptor sample÷Donor sample)−(Acceptor no-tracer control÷Donor no-tracer control)]. The IC50 values of compounds were calculated with Prism GraphPad program.
(§4) • 1). Cultivate HEK-293 cells (70-80% confluence) appropriately prior to assay. Trypsinize and collect HEK-293 cells. • 2). Prepare lipid: DNA complexes as follows: • a. Prepare a 10 μg/ml solution of DNA in Opti-MEM without serum that consists of the following ratios of carrier DNA and DNA encoding NanoLuc® fusion. […] of Transfection Carrier DNA, […] of NanoLuc fusion vector DNA and 1 mL of Opti-MEM without phenol red. Mix thoroughly. • b. Add 30 μl of FuGENE HD Transfection Reagent into each milliliter of DNA mixture to form lipid: DNA complex. • c. Mix by inversion 10 times. • d. Incubate at ambient temperature for 20 minutes to allow complexes to form. • 3). In a sterile, conical tube, mix 1 part of lipid:DNA complex with 20 parts of HEK-293 cells in suspension. Mix gently by inversion 5 times. • 4). Dispense cells+lipid: DNA complex into a sterile tissue culture dish and incubate for 22-24 hours.
(§5) Each test compound is delivered from the compound source plate to the wells of 384-well white NBS plate by Echo 550.
(§6) 3. Preparation of Cells with NanoBRET™ Tracer Reagent • 1). Remove medium from dish with transfected HEK-293 cells via aspiration, trypsinize and allow cells to dissociate from the dish. • 2). Neutralize trypsin using medium containing serum and centrifuge at 200× g for 5 minutes to pellet the cells. Adjust the cell density to […] cells/mL in Opti-MEM without phenol red. • 3). Prepare Complete 20× NanoBRET™ Tracer Reagent with Tracer Dilution Buffer. • 4). […]

IRAK4 = target: T2, IRAK4 (Homo sapiens, UniProt Q9NWZ3); assay: Reaction Biology NanoBRET target engagement assay, IRAK4; format: cell-based; conditions: HEK-293 cells transfected with Kinase-NanoLuc fusion vector, live cells
T2 sequence (Q9NWZ3 1-460): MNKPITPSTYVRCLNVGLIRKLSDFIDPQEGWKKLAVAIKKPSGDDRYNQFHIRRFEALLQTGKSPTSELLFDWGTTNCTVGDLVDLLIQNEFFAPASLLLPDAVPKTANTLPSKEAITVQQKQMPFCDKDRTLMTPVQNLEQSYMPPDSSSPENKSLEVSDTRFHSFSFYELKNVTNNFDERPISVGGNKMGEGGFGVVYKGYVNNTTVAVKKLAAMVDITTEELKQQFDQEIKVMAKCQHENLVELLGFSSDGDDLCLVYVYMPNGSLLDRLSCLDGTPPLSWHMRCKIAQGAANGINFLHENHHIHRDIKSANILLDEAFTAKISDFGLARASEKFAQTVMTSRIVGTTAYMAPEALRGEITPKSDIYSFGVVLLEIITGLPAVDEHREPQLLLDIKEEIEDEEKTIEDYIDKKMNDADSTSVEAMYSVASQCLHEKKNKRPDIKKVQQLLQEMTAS
Excerpt: as §1, §2, §3, §4, §5, §6

Row | SMILES | IC50 (FLT3) [nM] | IC50 (IRAK4) [nM]
1 | COc1cc2ncc(-c3nc(N[C@H]4CNCC[C@@H]4F)c(F)cc3F)n2nc1C1CC2(CCC2)C1 [Compound 10a, 3,5-difluoro-N-((3S,4S)-4-fluoropiperidin-3-yl)-6-(7-methoxy-6-(spiro[3.3]heptan-2-yl)imidazo[1,2-b]pyridazin-3-yl)pyridin-2-amine] | 63 | 64
2 | COc1cc2ncc(-c3nc(N[C@H]4CNCC[C@@H]4F)c(F)cc3F)n2nc1C12CC(C1)C2 [Compound 67a, 6-(6-(bicyclo[1.1.1]pentan-1-yl)-7-methoxyimidazo[1,2-b]pyridazin-3-yl)-3,5-difluoro-N-((3S,4S)-4-fluoropiperidin-3-yl)pyridin-2-amine] | 1 | 5
3 | COc1cc2ncc(-c3nc(N[C@H]4CNCC[C@@H]4F)c(F)cc3F)n2nc1C1CCC1 [Compound 15a, 6-(6-cyclobutyl-7-methoxyimidazo[1,2-b]pyridazin-3-yl)-3,5-difluoro-N-((3S,4S)-4-fluoropiperidin-3-yl)pyridin-2-amine] | < 0.5 | 1
4 | COc1cc2ncc(-c3nc(N[C@@H]4CCCNC4)c(F)cc3F)n2nc1C(C)(O)C(F)(F)F (single isomer, unassigned) [Compound 81a] | 5 | 0.6
5 | COc1cc2ncc(-c3nc(N[C@H]4CNC[C@@H]4F)c(F)cc3F)n2nc1C(C)(O)C(F)(F)F (single isomer, unassigned) [Compound 80a] | 1 | 5
6 | COc1cc2ncc(-c3nc(N[C@H]4CNCC[C@@H]4F)c(F)cc3F)n2nc1C(C)(O)C(F)(F)F (single isomer, unassigned) [Compound 77a] | 2 | 0.4
7 | COc1cc2ncc(-c3nc(N[C@H]4CNC[C@@H]4F)c(F)cc3F)n2nc1C1CC2(CCC2)C1 [Compound 12a, 3,5-difluoro-N-((3S,4S)-4-fluoropyrrolidin-3-yl)-6-(7-methoxy-6-(spiro[3.3]heptan-2-yl)imidazo[1,2-b]pyridazin-3-yl)pyridin-2-amine] | 13 | 71

Reference: US20250368648A1, “MULTI-CYCLIC IRAK AND FLT3 INHIBITING COMPOUNDS AND USES THEREOF” (CHILDREN'S HOSPITAL MEDICAL CENTER, priority 2022, published 2025)
